3 compounds from article PMC12377313, “New 1E,1′E-hydrazine-bis(phenoxy-1,2,3-triazol-acetamide) derivatives as potent inhibitors against acetylcholinesterase, butyrylcholinesterase, and α-glucosidase” (RSC Advances, 2025) can be followed below.

Like-named read-outs stand apart in the source and are kept apart here.

For orientation: IC50 means the concentration needed to halve the response being measured.

Assay [1] deals with HEK293 embryonic kidney cells. Briefly: MTT cell viability assay, HEK293. It is filed as cell-based. Conditions: Homo sapiens, read-out: IC50 (μM) HEK-293. How it is done:
The human neuroblastoma cell line SH-SY5Y (ATCC® CRL-2266™) and HEK293 (ATCC® CRL-1573™) human embryonic kidney cells were grown in Dulbecco's Modified Eagle Medium/Nutrient Mixture F-12 (DMEM/F-12) culture containing 10% heat-inactivated fetal bovine serum (FBS) and 1% antibiotics. The cells were incubated at 37 °C in a humidified atmosphere of 5% CO2. Both cell lines were provided by the American Type Culture Collection (ATCC).[30,31]
SH-SY5Y (ATCC® CRL-2266™) and HEK293 (ATCC® CRL-1573™) cells were seeded into 96-well plates at a density of 5 × 10^3 cells per well, and allowed to adhere overnight in a humidified incubator at 37 °C with 5% CO2. After attachment, the cells were treated with eight different concentrations of the target compounds (200, 100, 50, 25, 12.5, 6.25, 3.125, and 1.5625 μM), prepared via serial 1 : 2 dilutions, for 24 hours. Each concentration was tested in triplicate.
(§1) Following treatment, 10 μL of MTT solution (5 mg mL^−1 in PBS) was added to each well and incubated for an additional 4 hours under the same conditions. At the end of the incubation period, the medium containing MTT was carefully removed, and the formazan crystals formed by viable cells were solubilized in 100 μL of DMSO per well. The absorbance was measured at 570 nm using a microplate reader. The net absorbance (after blank subtraction) was used to calculate the percentage cell viability relative to the untreated control cells, which was set at 100%. All results were expressed as mean ± standard deviation (SD) of three independent experiments.[32,33]
(Tetrazolium assays rely on reduction of a dye to a coloured formazan, in cell work by metabolically active cells.)

In assay [2] the test system is SH-SY5Y neuroblastoma cells. Briefly: MTT cell viability assay, SH-SY5Y. It is filed as cell-based, human. Conditions: for Selectivity (selectivity index): HEK293 versus SH-SY5Y; for IC50: Homo sapiens, SH-SY5Y, 24 h, read-out: IC50 (μM) SH-SY5Y. As to the method: The cells were incubated at 37 °C in a humidified atmosphere of 5% CO2. Both cell lines were provided by the American Type Culture Collection (ATCC).[30,31]
Each concentration was tested in triplicate.
as §1

Assay [3] concerns the target T1, α-glucosidase (Saccharomyces cerevisiae, UniProt P53341). Briefly: Kinetic study (Lineweaver–Burk plots), α-glucosidase. It is filed as biochemical. As to the method: In this regard, compound 10k for AChE and BChE and compound 10h for α-glucosidase were selected. The type of inhibition of these compounds was determined by Lineweaver–Burk plots. […] These indicated a competitive type of inhibition for compound 10k.

The target in assay [4] is T1, α-glucosidase. Briefly: α-Glucosidase inhibition assay (p-NPG substrate). It is filed as biochemical, yeast. As to the method:
For this assay, the yeast form of α-glucosidase was used and p-nitrophenyl-α-D-glycopyranoside (p-NPG) was used as the substrate. The required solutions of these materials were prepared in a phosphate buffer solution (pH of 7.4 and a concentration of 5 mM). […] Subsequently, a mixture containing 200 μL of phosphate solution, 50 μL of the substrate, and 5–200 μL of the sample solution was pre-incubated at 35 °C for 3 min for α-glucosidase.

In assay [5] the target is T2, AChE (Homo sapiens, UniProt P22303). Put plainly: biochemical. It is filed as biochemical.
Assay [6] has as its target T3, BChE (Homo sapiens, UniProt P06276). Put plainly: biochemical.
For assay [7], the target named is T3, BChE. Put plainly: Kinetic study (Lineweaver–Burk plots), BChE. It is filed as biochemical. How it is done: (§2) […]. In this regard, compound 10k for AChE and BChE and compound 10h for α-glucosidase were selected. The type of inhibition of these compounds was determined by Lineweaver–Burk plots. […] These indicated a competitive type of inhibition for compound 10k.

Assay [8] has as its target T2, AChE. Briefly: Kinetic study (Lineweaver–Burk plots), AChE. It is filed as biochemical. How it is done: as §2
[9] abbreviates: HEK293, 24 h treatment, MTT, mean ± SD (n = 3).
Where [10] appears, read: 24 h treatment, MTT, mean ± SD (n = 3).

T1 sequence (P53341 whole entry): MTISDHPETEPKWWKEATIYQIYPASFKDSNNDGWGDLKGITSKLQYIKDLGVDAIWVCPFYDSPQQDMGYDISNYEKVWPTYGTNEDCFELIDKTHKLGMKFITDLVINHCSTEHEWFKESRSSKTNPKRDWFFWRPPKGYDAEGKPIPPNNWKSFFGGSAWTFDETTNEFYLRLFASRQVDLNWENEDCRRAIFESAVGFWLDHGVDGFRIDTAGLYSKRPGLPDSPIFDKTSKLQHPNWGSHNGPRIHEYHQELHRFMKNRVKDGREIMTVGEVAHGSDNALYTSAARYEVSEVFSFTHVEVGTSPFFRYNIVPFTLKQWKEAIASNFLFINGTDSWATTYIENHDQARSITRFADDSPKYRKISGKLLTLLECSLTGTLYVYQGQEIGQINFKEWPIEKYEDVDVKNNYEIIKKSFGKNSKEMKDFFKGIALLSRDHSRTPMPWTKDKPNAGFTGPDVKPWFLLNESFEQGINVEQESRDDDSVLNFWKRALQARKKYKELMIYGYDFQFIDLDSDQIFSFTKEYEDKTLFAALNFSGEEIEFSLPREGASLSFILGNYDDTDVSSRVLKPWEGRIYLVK
T3 sequence (P06276 29-602): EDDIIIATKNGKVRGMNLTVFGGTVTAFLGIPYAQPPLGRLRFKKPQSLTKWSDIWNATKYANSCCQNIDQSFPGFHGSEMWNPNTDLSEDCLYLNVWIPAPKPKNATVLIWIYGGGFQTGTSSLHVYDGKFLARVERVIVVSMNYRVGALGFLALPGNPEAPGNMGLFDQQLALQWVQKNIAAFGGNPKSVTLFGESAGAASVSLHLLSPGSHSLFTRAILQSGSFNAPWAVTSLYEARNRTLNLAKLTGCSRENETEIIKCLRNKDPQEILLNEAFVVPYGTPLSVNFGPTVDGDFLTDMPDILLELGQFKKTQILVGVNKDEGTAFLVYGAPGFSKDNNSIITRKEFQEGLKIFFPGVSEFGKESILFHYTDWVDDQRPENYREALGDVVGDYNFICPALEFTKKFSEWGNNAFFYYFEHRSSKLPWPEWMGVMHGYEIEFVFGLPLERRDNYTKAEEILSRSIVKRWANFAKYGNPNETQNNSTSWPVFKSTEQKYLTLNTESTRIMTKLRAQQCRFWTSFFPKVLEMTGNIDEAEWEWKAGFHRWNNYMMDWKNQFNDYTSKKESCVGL
T2 sequence (P22303 32-614): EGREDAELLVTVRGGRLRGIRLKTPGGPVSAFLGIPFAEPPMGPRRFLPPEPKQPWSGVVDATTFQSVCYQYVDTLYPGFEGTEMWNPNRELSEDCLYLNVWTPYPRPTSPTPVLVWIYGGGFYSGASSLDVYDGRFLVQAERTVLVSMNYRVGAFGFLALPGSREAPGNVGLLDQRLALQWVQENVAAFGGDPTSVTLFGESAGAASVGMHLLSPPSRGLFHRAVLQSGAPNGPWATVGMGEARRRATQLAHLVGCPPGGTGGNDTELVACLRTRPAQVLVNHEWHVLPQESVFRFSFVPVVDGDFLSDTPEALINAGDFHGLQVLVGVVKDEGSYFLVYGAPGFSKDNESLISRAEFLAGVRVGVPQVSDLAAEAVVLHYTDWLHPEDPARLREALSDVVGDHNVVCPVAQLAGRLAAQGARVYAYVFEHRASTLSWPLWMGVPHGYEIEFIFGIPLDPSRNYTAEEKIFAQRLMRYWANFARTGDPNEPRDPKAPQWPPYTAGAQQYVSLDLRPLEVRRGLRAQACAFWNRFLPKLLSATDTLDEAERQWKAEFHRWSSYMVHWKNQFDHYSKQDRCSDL

As for `O=C(Cn1cc(COc2ccc(/C=N/N=C/c3ccc(OCc4cn(CC(=O)Nc5ccccc5Cl)nn4)cc3)cc2)nn1)Nc1ccccc1Cl` [Compound 10h, 2,2′-((((((1E,1′E)-Hydrazine-1,2-diylidenebis(methaneylylidene))bis(4,1-phenylene))bis(oxy))bis(methylene))bis(1H-1,2,3-triazole-4,1-diyl))bis(N-(2-chlorophenyl)acetamide)], the IC50 in assay [1] (setting [9]) stood at 78.38 ± 0.57 µM; in assay [2] (setting [10]), 7.42 ± 0.07 µM; on α-glucosidase [4], 23.9 ± 3.42 nM; at AChE [5] (read-out: IC50 (nM) AChE), 118 ± 9.17 nM; at BChE [6], 19.4 ± 0.65 nM. Besides, the “Selectivity (selectivity index)” value in assay [2] turned out to be 10.6. In addition, the “type of inhibition against α-glucosidase” value at α-glucosidase [3] is given as “non-competitive”.
Turning to `O=C(Cn1cc(COc2ccc(/C=N/N=C/c3ccc(OCc4cn(CC(=O)Nc5ccc(Cl)cc5Cl)nn4)cc3)cc2)nn1)Nc1ccc(Cl)cc1Cl` [Compound 10k, 2,2′-((((((1E,1′E)-Hydrazine-1,2-diylidenebis(methaneylylidene))bis(4,1-phenylene))bis(oxy))bis(methylene))bis(1H-1,2,3-triazole-4,1-diyl))bis(N-(2,4-dichlorophenyl)acetamide)], the IC50 in assay [1] (setting [9]) stood at 81.71 ± 0.56 µM; in assay [2] (setting [10]), 8.11 ± 0.07 µM; against α-glucosidase [4], 46.1 ± 3.26 nM; at AChE [5] (read-out: IC50 (nM) AChE) it was 105 ± 7.32 nM; against BChE [6], 10.1 ± 1.08 nM. Moreover, the “Selectivity (selectivity index)” value in assay [2] turned out to be 10.1. In addition, the “type of inhibition against BChE” value at BChE [7] is listed as “competitive”. On AChE [8], the “type of inhibition against AChE” value is listed as “competitive”.
Turning to `O=C(Cn1cc(COc2ccc(/C=N/N=C/c3ccc(OCc4cn(CC(=O)Nc5ccc([N+](=O)[O-])cc5)nn4)cc3)cc2)nn1)Nc1ccc([N+](=O)[O-])cc1` [Compound 10n, 2,2′-((((((1E,1′E)-Hydrazine-1,2-diylidenebis(methaneylylidene))bis(4,1-phenylene))bis(oxy))bis(methylene))bis(1H-1,2,3-triazole-4,1-diyl))bis(N-(4-nitrophenyl)acetamide)], the IC50 in assay [1] (HEK293, 24 h) is 38.42 ± 0.19 µM; in assay [2], 5.22 ± 0.12 µM; on α-glucosidase [4] (read-out: IC50 (nM) α-Glucosidase), 65.1 ± 6.01 nM; at AChE [5] it was 173 ± 9.71 nM; against BChE [6] it was 13.9 ± 4.3 nM. In assay [2], the “Selectivity (selectivity index)” value is 7.4.
